Source: patent publication US10933077B2, “TLR4 inhibitors for the treatment of human infectious and inflammatory disorders” (UNIVERSITY OF PITTSBURGH—OF THE COMMONWEALTH SYSTEM OF …, priority 2010, dated 2021)
Counter-ions that a name gives are not always drawn.

What was measured:
Assay type in all cases: in vivo
[1] = tested on: LPS-induced NFkB activation; assay: NFkB-luciferase reporter mice assay (LPS-induced endotoxemia); conditions: for inhibition of LPS-induced NFkB activation: 20 nanomoles test compound i.p. 30 minutes prior to LPS 2 mg/kg, 6 hrs, IVIS luciferase imaging
Description: (§1) Compound preparation and delivery. All 65 identified compounds were received in solid form and stored at 4° C. until use. Stock solutions of each compound were made by dissolving the appropriate amount of each compound in dimethyl sulfoxide (DMSO) to yield a concentration of 10 mM. Immediately prior to injection into experimental animals, the compounds were diluted to an experimental concentration of 100 uM in phosphate-buffered saline (PBS). Total concentration of DMSO in the final diluted drug was 1%. Compounds were closely examined to insure that no precipitate formed prior to injection and were stored on ice until injection. All compounds were given via intraperitoneal (i.p.) injection in a total volume of 200 ul using a 1 cc syringe and 27 gauge needle. In all experiments listed below, the compounds were delivered to the experimental mice 30 minutes prior to injection with lipopolysaccharide (LPS) to induce endotoxemia. Control animals not receiving compound received 1% DMSO dissolved in PBS. Following drug injection, the mice were observed closely in their cages for signs of immediate toxicity or adverse reaction to the drug, including but not limited to piloerection, tachypnea, bleeding, abnormal or aggressive behavior, signs of altered mental status, and level of activity.
(§2) Induction of endotoxemia. All mice were housed and cared for at the Rangos Research Center, Children's Hospital of Pittsburgh (Pittsburgh, Pa.). All experiments were approved by the Children's Hospital of Pittsburgh Animal Care Committee and by the Institutional Review Board of the University of Pittsburgh. Swiss Webster (CFW) and NFkB-luciferase reporter mice were obtained from The Jackson Laboratory. Throughout the course of all experiments, mice were housed 4 per cage with access to food, water, and standard bedding. Endotoxemia was induced in all experiments by i.p. injection of LPS (Escherichia coli 0111:B4 purified by gel filtration chromatography, >99% pure, Sigma-Aldrich) at a dose of 2 mg/kg for 6 hours. At the end of each experiment, all animals were euthanized by CO2 hypoxia and cervical dislocation.
NFkB-luciferase reporter mice assay. NFkB-luciferase reporter mice, in which the […], were subjected to endotoxemia with or without pretreatment with experimental compounds. The experimental compounds treated by this assay were compounds 1-6, with compounds 1-3 tested first and compounds 4-6 tested later. For both experiments, the mice were 6 weeks old on the date of the experiment. […] After whole body imaging, an additional injection of luciferin is given and animals were euthanized, organs were harvested, and the extent of NFkB activation within various tissues was further analyzed by an additional luminescence image of the individual organs. […]

TLR4 = molecular target: T1, TLR4 (Mus musculus, UniProt Q9JHF9+Q9QUK6); assay: CFW endotoxemia assay (observation of behavior and phenotype after LPS); conditions: CFW mice, 20 nanomoles compound i.p. 30 minutes prior to LPS 2 mg/kg, 6 hours; for Observation (Compound “Negatives”): listed as “Negatives”; for Observation (Compound “Hits”): listed as “Hits”
T1 construct: Swiss Webster (CFW) and NFkB-luciferase reporter mice were obtained from The Jackson Laboratory; tissue The Jackson Laboratory; host or cells: whole live Swiss Webster (CFW) mice
T1 sequence (Q9QUK6 26-835): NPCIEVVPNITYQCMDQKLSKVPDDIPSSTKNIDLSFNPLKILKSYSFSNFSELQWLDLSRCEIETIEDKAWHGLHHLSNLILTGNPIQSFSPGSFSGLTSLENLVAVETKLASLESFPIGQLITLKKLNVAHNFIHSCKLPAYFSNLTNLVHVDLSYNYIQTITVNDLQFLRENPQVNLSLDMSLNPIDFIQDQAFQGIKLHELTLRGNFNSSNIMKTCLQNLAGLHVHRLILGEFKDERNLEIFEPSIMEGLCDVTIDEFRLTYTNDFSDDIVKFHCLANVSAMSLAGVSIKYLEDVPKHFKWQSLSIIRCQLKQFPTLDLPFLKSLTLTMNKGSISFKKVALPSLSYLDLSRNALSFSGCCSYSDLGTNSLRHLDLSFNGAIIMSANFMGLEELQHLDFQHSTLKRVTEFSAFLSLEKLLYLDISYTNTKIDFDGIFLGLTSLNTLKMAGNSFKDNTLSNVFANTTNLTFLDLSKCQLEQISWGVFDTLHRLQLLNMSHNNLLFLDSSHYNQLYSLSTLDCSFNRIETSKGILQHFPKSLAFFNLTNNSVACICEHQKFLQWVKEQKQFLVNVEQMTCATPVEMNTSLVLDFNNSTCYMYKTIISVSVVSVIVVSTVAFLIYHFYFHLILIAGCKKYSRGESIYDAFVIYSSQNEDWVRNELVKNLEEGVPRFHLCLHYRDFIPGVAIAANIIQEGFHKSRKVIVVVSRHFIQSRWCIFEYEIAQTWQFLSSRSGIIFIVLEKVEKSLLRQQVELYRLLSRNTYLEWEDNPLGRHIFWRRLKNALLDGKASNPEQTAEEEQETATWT
T1 sequence (Q9JHF9 19-160): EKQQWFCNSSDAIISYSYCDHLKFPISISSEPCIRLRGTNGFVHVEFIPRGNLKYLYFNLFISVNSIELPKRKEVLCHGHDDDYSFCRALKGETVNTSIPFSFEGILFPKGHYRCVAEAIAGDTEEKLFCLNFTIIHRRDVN
Description: as §1, §2
CFW endotoxemia assay. In order to effectively screen the entire compound list, the remaining compounds (7-60) were screened in a model of endotoxemia using CFW mice. Three separate experiments were performed: First, Compound 7 along with a repeat of compound 4 (n=3 mice per compound, mice age 5 weeks) were tested. Controls were saline injection alone (n=1), LPS 2 mg/kg 6 hrs (n=2). Second, compounds 3, 4, 6, 8-32 were tested (n=1 mouse each, 3 week old mice). Controls were saline injection alone (n=1), LPS 2 mg/kg 6 hrs (n=2), LPS 10 mg/kg 6 hrs (n=2), Bay 11 pretreatment 20 mg/kg for 30 minutes prior to LPS 2 mg/kg 6 hrs. Third, compounds 8, 16, 33-60 were tested (n=1 mouse each, 3 week old mice). Controls were saline injection alone (n=1), LPS 2 mg/kg 6 hrs (n=2), Bay 11 pretreatment 20 mg/kg for 30 minutes prior to LPS 2 mg/kg 6 hrs. Following 6 hours of endotoxemia, mice from the second and third experiments were observed within their cages and videotaped to document behavior and phenotypic differences to assess for an inhibitory effect of compound pretreatment on the effects of LPS. Mice were identified by a number previously placed using permanent marker on their tails. The degree of piloerection, tachypnea, location in the cage (center of cage versus corners), degree of activity, and behavior relative to other animals was observed and documented via video for each mouse.
Less activity, tachypnea, and piloerection are considered symptomatic of endotoxemia, so a decrease in these is consistent with TLR inhibition by the administered compound. Note that compounds listed as negatives may still be T4Ics at other concentrations or conditions.

iNOS mRNA = assay: CFW-NEC mouse model (formula feeding), iNOS mRNA levels; conditions: 1 mg/kg, i.p., once daily for the first four days of the five day model; relative to RPLO
Source text: Inducible nitric oxide synthase (iNOS) is associated with necrotizing enterocolitis (NEC) in human infants. In a second set of experiments, the CFW-NEC mouse model system for NEC was used to evaluate the effect of various compounds from TABLES 1 and 2 above on iNOS mRNA levels. A model system for NEC was induced in newborn mouse pups by formula feeding, where control animals were breast-fed (Sodhi et al., 2010, Gastroenterol. 138(1):185-196; Richardson et al., 2010, Gastroenterol. 139(3):904-917). […] Note that RPLO stands for 505 ribosomal subunit protein L15, an acknowledged housekeeping gene, which means that it is a constitutive gene expressed at relatively constant levels by all cells and is thus used as a reference for comparing other genes which may vary under experimental conditions. In this same model system, levels of TLR4 mRNA levels were also evaluated. […] In contrast, the level of TLR4 was not increased in FF animals treated with C34 (1 mg/kg, i.p. once daily for the first four days of the five day model) and indeed mRNA levels were 30 percent below normal (see FIG. 14).

Structure (SMILES) | Observation (Compound “Negatives”) (TLR4) | Observation (Compound “Hits”) (TLR4) | further results
CC(=O)NC1C(OP(=O)(O)O)OC(CO)C(O)C1O (stereo not drawn) [Compound 4, 3-acetamido-4,5-dihydroxy-6-(hydroxymethyl)tetrahydro-2H-pyran-2-yl dihydrogen phosphate, sodium salt] | – | – | inhibition of LPS-induced NFkB activation ([1]; phosphate, sodium salt): greatest inhibitory activity
CC(=O)N[C@H]1C(O)O[C@H](CO)[C@H](O)[C@@H]1O.O (stereo partly drawn) [Compound 16, 2-(acetylamino)-2-deoxy-D-galactopyranose hydrate] | – | – | NFκB signalling (luciferase imaging) ([1]; LPS 2 mg/kg plus compound 1 mg/kg i.p.): reduced NFκB signalling
CC(=O)N[C@@H]1C[C@H](O)[C@@H](CO)O[C@H]1O[C@H]1[C@H](O)[C@@H](O)[C@H](O)O[C@@H]1C(=O)[O-].[Na+] [Compound 32, sodium (2S,3S,4R,5R,6R)-3-((2S,3R,5S,6R)-3-acetamido-5-hydroxy-6-(hydroxymethyl)tetrahydro-2H-pyran-2-yloxy)-4,5,6-trihydroxytetrahydro-2H-pyran-2-carboxylate] | More tachypneic, more piloerection | – | –
CCCCCCCCCCCCCCCCOC1OC(COC(C)=O)C(OC(C)=O)C(OC(C)=O)C1NC(C)=O (stereo not drawn) [Compound 61, [5-acetamido-3-acetyloxy-2-(acetyloxymethyl)-6-hexadecoxy-oxan-4-yl] acetate] | – | Less piloerection, less tachypnea | –
CC(=O)NC1C(O)OC(CO)[C@@H](O[C@@H]2OC(CO)[C@H](O)C(O)C2O)C1O (stereo partly drawn) [Compound 27, 2-(acetylamino)-2-deoxy-4-O-hexopyranosylhexopyranose] | – | – | increase of iNOS mRNA level in formula-fed (FF) pups (iNOS mRNA): much less
CC(=O)N[C@H]1[C@@H](OP(=O)([O-])OP(=O)([O-])OC[C@H]2O[C@@H](n3ccc(=O)[nH]c3=O)[C@H](O)[C@@H]2O)O[C@H](CO)[C@@H](O)[C@@H]1O.[Na+].[Na+] [Compound 41, Uridine 5′-diphospho-N-acetylglucosamine sodium salt] | Less active, huddled in corner | – | –
COC1OC(COC(C)=O)C(OC(C)=O)C(OC(C)=O)C1NC(C)=O (stereo not drawn) [Compound 62, (5-acetamido-3,4-diacetyloxy-6-methoxy-oxan-2-yl)methyl acetate] | Nearly static, little movement, rigors | – | –
CC(=O)NC1C(O)OC(CO)C(OC2OC(C)C(O)C(O)C2O)C1OC1OC(CO)C(O)C(O)C1O (stereo not drawn) [Compound 45, 2-(acetylamino)-2-deoxy-4-O-(6-deoxyhexopyranosyl)-3-O-hexopyranosylhexopyranose] | – | More active, crawled over other mice, less piloerection | –
CCCCCCCCCCCCCCCCCCCCCCCCCC(=O)NC(COC1OC(CO)C(O)C(O)C1O)C(O)C(O)CCCCCCCCCCCCCC [Compound 2, N-{(1S,2S,3R)-1-[(beta-L-glycero-hexopyranosyloxy)methyl]-2,3-dihydroxyheptadecyl}hexacosanamide] | – | – | inhibition of LPS-induced NFkB activation [1]: exception
CC(=O)CC1OC(OC2C(NC(C)=O)C(O)OC(CO)C2OS(=O)(=O)O)C(O)C(O)C1O [Compound 43, 2-(acetylamino)-2-deoxy-3-O-(6,8-dideoxy-beta-L-glycero-octopyranosyl-7-ulose)-4-O-sulfo-L-erythro-hexopyranose] | – | More active, crawled over other mice, less piloerection | –
CC(=O)NC1C(OC(C)C(=O)O)[C@H](O)C(CO)O[C@H]1O (stereo partly drawn) [Compound 30, 2-((2R,5S)-3-acetamido-2,5-dihydroxy-6-(hydroxymethyl)tetrahydro-2H-pyran-4-yloxy)propanoic acid] | – | Less tachypnea, more mobile | –
COC(=O)C1(OC)CC(O)C(NC(C)=O)C(C(O)C(O)CO)O1 [Compound 25, dimethyl 5-(acetylamino)-3,5-dideoxy-D-erythro-non-2-ulopyranosidonate] | More piloerection, less mobile than other in the cage | – | –
